The nature of series [1]: Hygroscopicity (DVS) from 0% to 90%. Format: physicochemical. The conditions noted are these: for weight gain from 0% to 90% (DVS) / hygroscopicity (in words): 25° C.; for hygroscopicity (in words): DVS 0% to 90%. On the procedure: About 10 mg of the tetrahydrofuran solvate form of the present invention were used to test the hygroscopicity (DVS) from 0% to 90% according to the details on Table 2.
About 10 mg of the dimethylsulfoxide solvate form of the present invention were used to test the hygroscopicity (DVS) from 0% to 90% according to the details on Table 2 hereinabove.
The hygroscopicities of the Darunavir forms of the present invention were compared to the hygroscopicity of Darunavir ethanolate API.

Another series can be described thus: Bulk density. Format: physicochemical.
For series [2] the following is noted: water at 20° C.; cited from earlier work.
Series [3] can be described thus: Particle size distribution and surface area. Format: physicochemical. On the procedure: Micronized darunavir dimethylsulfoxide solvate was prepared from the non-micronized form by milling using a jet mill (Super fine vortex Mill™).
A short description of series [4]: Aqueous solubility in buffers, 24 h shaking at 25° C., HPLC. Format: physicochemical. The settings on record: 24 hours at 25° C.; for solubility at 24 h: 25 °C, thermodynamic from solid. On the procedure: The aqueous solubility of the tetrahydrofuran solvate of darunavir of the present invention was measured. Specifically, about 10 mg of the compound was accurately weighed into a 4 ml clear glass vial followed by the addition of 2.5 ml buffer (at different pH) to the vial. The vial was then mounted on a Thermomixer and was kept shaking for 24 hours at 25° C. The solution was filtered through 0.45 μm PTFE filter. The pH value and concentration of the filtrate were checked by pH meter and HPLC (Agilent 1200; Column: Zorbax SB C18, 4.6 mm×150 mm ID×5 μm; Profile of mobile phase: t=0 water 70, ACN 30; t=15,20 water 0, ACN 100; Column temperature 30° C.; Mobile rate 1.0 mL/min; Detector wavelength 265 nm; The typical retention time of Darunavir is 7.7 min), respectively.
The aqueous solubility of the dimethylsulfoxide solvate of darunavir of the present invention was measured. Specifically, about 10 mg of the compound was accurately weighed into a 4 ml clear glass vial followed by the addition of 2.5 ml buffer (at different pH) to the vial. The vial was then mounted on a Thermomixer and kept shaking for 24 hours at 25° C. The solution was filtered through 0.45 μm PTFE filter. The pH value and concentration of the filtrate were checked by pH meter and HPLC, respectively.
Specifically, about 10 mg of the compound was accurately weighed into a 4 ml clear glass vial followed by the addition of 2.5 ml buffer (at different pH) to the vial. The vial was then mounted on a Thermomixer and kept shaking for 24 hours at 25° C. The solution was filtered through 0.45 μm PTFE filter. The pH value and concentration of the filtrate were checked by pH meter and HPLC, respectively. The results are summarized in Table 11 and in FIG. 8 panel C.

[5] abbreviates: listed as dimethylsulfoxide solvate form.
The mark [6] stands for this setting: pH 1.2 buffer, footnote *degraded.
[7] abbreviates: listed as tetrahydrofuran solvate form.

In brackets after ≈: the same amount, converted by molar mass. Where two headings read alike, the source gives them in different places.

These results are taken from US9453024B2, “Polymorphs of darunavir” (MAPI PHARMA LTD., priority 2009, dated 2016).

As for `CC(C)CN(C[C@@H](O)[C@H](Cc1ccccc1)NC(=O)O[C@H]1CO[C@H]2OCC[C@H]21)S(=O)(=O)c1ccc(N)cc1` [darunavir ethanolate, [(1S,2R)-3-[[(4-aminophenyl)sulfonyl](2-methylpropyl)amino]-2-hydroxy-1-(phenylmethyl)propyl]-carbamic acid (3R,3aS,6aR)-hexahydrofuro[2,3-b]furan-3-yl ester, reference compound], in series [1], the “weight gain from 0% to 90% (DVS)” value is 2.180% and the “hygroscopicity (in words)” value is “hygroscopic”. Moreover, the “loss of solvate during the desorption measurement” value in series [1] (DVS desorption) is reported as “lost the solvate ethanol molecules”. Moreover, the bulk density in “Bulk density” (known ethanolate form, comparator) stood at 0.374 ± 0.009 g/mL. Further, the solubility in water entry in series [2] was “approximately 0.15 mg/mL”.
On to `CC(C)CN(C[C@@H](O)[C@H](Cc1ccccc1)NC(=O)O[C@H]1CO[C@H]2OCC[C@H]21)S(=O)(=O)c1ccc(N)cc1` [darunavir dimethylsulfoxide solvate, [(1S,2R)-3-[[(4-aminophenyl)sulfonyl](2-methylpropyl)amino]-2-hydroxy-1-(phenylmethyl)propyl]-carbamic acid (3R,3aS,6aR)-hexahydrofuro[2,3-b]furan-3-yl ester], for which the Dissolution was 56.83% (15 min, 600 mg/vessel, 75 rpm, 900 mL 2.0% Tween-20 in 0.05M sodium phosphate buffer pH 3.0, 37° C., listed as Non-micronized); 81.61% (30 min, same medium, listed as Non-micronized); 88.06% (45 min, same medium, listed as Non-micronized); 90.45% (60 min, same medium, listed as Non-micronized). Besides, the D10 in series [3] (listed as Non-micronized) amounted to 3.9 μm. The compound also displayed a D50 in series [3] (listed as Non-micronized) of 29.2 μm. The D90 in series [3] (listed as Non-micronized) was 99.7 μm. This compound returned a Specific surface area in series [3] (listed as Non-micronized) of 0.9 m^2/g. Also, the Surface weighted mean in series [3] (listed as Non-micronized) amounted to 6.5 μm. This compound also showed a Vol. weighted mean in series [3] (listed as Non-micronized) of 42.0 μm. Also, the “weight gain from 0% to 90% (DVS)” value in series [1] and in series [1] (setting [5]) was 0.9431% each time. Moreover, the “hygroscopicity (in words)” value in series [1] and in series [1] (setting [5]) was “only slightly hygroscopic” in each case. In the series “Bulk density”, the bulk density came out at 0.472 ± 0.008 g/mL. Besides, the “denser when compared to the bulk density of the known ethanolate form” value in “Bulk density” was “approximately 26%”. The Solubility in series [4] (setting [6]) was 1.36* mg/ml; in series [4] (pH 4.5 buffer) it was 0.22 mg/mL; in series [4] (pH 6.8 buffer), 0.21 mg/mL; in series [4] (pH 7.4 buffer) it was 0.20 mg/mL; in series [4] (water), 0.23 mg/mL.
For `CC(C)CN(C[C@@H](O)[C@H](Cc1ccccc1)NC(=O)O[C@H]1CO[C@H]2OCC[C@H]21)S(=O)(=O)c1ccc(N)cc1` [amorphous darunavir, [(1S,2R)-3-[[(4-aminophenyl)sulfonyl](2-methylpropyl)amino]-2-hydroxy-1-(phenylmethyl)propyl]-carbamic acid (3R,3aS,6aR)-hexahydrofuro[2,3-b]furan-3-yl ester], the “weight gain from 0% to 90% (DVS)” value in series [1] was found to be 2.617%. In addition, in series [1], the “hygroscopicity (in words)” value was “hygroscopic”. Further, in the series “Bulk density”, the bulk density worked out at 0.445 ± 0.012 g/mL. The Solubility is 1.73* mg/ml in series [4] (setting [6]); 0.27 mg/mL (≈ 493 µM) in series [4] (pH 4.5 buffer); 0.24 mg/mL (≈ 438 µM) in series [4] (pH 6.8 buffer); 0.23 mg/mL (≈ 420 µM) in series [4] (pH 7.4 buffer); 0.27 mg/mL (≈ 493 µM) in series [4] (water).
For `CC(C)CN(C[C@@H](O)[C@H](Cc1ccccc1)NC(=O)O[C@H]1CO[C@H]2OCC[C@H]21)S(=O)(=O)c1ccc(N)cc1` [darunavir tetrahydrofuran solvate, [(1S,2R)-3-[[(4-aminophenyl)sulfonyl](2-methylpropyl)amino]-2-hydroxy-1-(phenylmethyl)propyl]-carbamic acid (3R,3aS,6aR)-hexahydrofuro[2,3-b]furan-3-yl ester], the “weight gain from 0% to 90% (DVS)” value in series [1] and in series [1] (setting [7]) was 1.366% each time. Further, the “hygroscopicity (in words)” value in series [1] is given as “only slightly hygroscopic”; in series [1] (setting [7]), “slightly hygroscopic”. The compound further had a bulk density in the series “Bulk density” of 0.431 ± 0.007 g/mL. Besides, the solubility at 24 h is 1470 µg/mL in series [4] (pH 1.2 buffer, pH 1.2, simulated gastric fluid, footnote *degraded); 270 µg/mL in series [4] (pH 4.5 buffer, pH 4.5, aqueous buffer); 240 µg/mL in series [4] (pH 6.8 buffer, pH 6.8, aqueous buffer); 230 µg/mL in series [4] (pH 7.4 buffer, pH 7.4, aqueous buffer); 270 µg/mL in series [4] (water).
Compound `CC(C)CN(C[C@@H](O)[C@H](Cc1ccccc1)NC(=O)O[C@H]1CO[C@H]2OCC[C@H]21)S(=O)(=O)c1ccc(N)cc1` [[(1S,2R)-3-[[(4-aminophenyl)sulfonyl](2-methylpropyl)amino]-2-hydroxy-1-(phenylmethyl)propyl]-carbamic acid (3R,3aS,6aR)-hexahydrofuro[2,3-b]furan-3-yl ester] gave a Dissolution (15 min, 600 mg/vessel, 75 rpm, 900 mL 2.0% Tween-20 in 0.05M sodium phosphate buffer pH 3.0, 37° C., listed as Micronized) of 89.30%. Under “30 min, same medium, listed as Micronized”, this compound had a Dissolution of 94.72%. Under “45 min, same medium, listed as Micronized”, this compound registered a Dissolution of 95.98%. This compound showed a Dissolution (60 min, same medium, listed as Micronized) of 94.95%. Moreover, in series [3] (listed as Micronized), the D10 is on record as 1.5 μm, the D50 was 3.7 μm, the D90 was determined as 7.2 μm and the Specific surface area turned out to be 2.6 m^2/g. In series [3] (listed as Micronized), this compound showed a Surface weighted mean of 2.3 μm and a Vol. weighted mean of 4.1 μm.

Broadly, the Solubility is the dissolved amount per volume that the medium holds. The low end stands for a poorly soluble substance, the high end for a readily soluble substance. One may read the solubility as how much of the substance goes into solution per volume. Lower therefore signals little dissolved substance.
